Entries after “also recorded” stand apart in the source; their conditions may differ. Values belong to the compound of their own block, whether it stands above or below them.
Experiments:
[1] = test system: 9 L tumor cell line; test: In vitro cell uptake studies of the four 4-[18F]F-glutamine isomers; type: cell-based, rat; details: 18F-labeled isomer, 37° C., 5-120 min, compared to [3H]glutamine
Description: Cell uptake of four possible isomers was evaluated using 9 L tumor cell line. The cell uptake results (% dose/100 μg protein) were compared to that of [^3H] glutamine.
(§1) Because of this observation, we decided only to further investigate the (2S,4R) isomer of [^18F]4-FGln, 1. In vitro cell uptake inhibition studies were conducted in 9 L cells in order to test the specificity of [^18F]4-FGln (2S,4R), 1. Cold L-glutamine and L-serine served as the positive control inhibitors for the glutamine transporters. L-glutamine inhibits system N transporter and L-serine inhibits the ASC transporter. Three different concentrations were tested for each inhibitor ranging from 0.5 mM to 5 mM. After 30 minutes of co-incubation of L-glutamine and [^18F] […] Cold MeAIB served as the negative control, which inhibits system A transporter.
(§2) The cellular uptake of each of the four 4-[^18F]F-glutamine isomers (2S,4R), (2S,4S), (2R,4S) and (2R,4R) were studied in (9 L) rat brain gliosarcoma cells. L-[3,4-^3H(N)]-glutamine, >97%, 250 μCi (9.25 MBq), was purchased from Perkin Elmer and was used as a control for all of the cellular uptake experiments conducted. […] All four of the 4-[^18F]F-glutamine isomers and the L-[3,4-^3H(N)]-glutamine was dissolved in PBS solution and was added to each well (500,000 cpm/mL/well) and incubated at 37° C. for 5, 30, 60, 120 min. At the end of the incubation period, the wells were aspirated and then the residual cells were washed 3 times with 1 mL ice cold PBS without Ca^2+ and Mg^2+. After washing with cold PBS, 350 μL 1M NaOH was used to lyse the cells. The lysed cells were collected onto filter paper. The filter papers were placed in scintillation vials and counting fluid was added (7 mL ecolite+) and the vials were then counted with a beta counter 18-24 h later. For dual-isotope studies using 4-[^18F]F-glutamine isomers and L-[3,4-^3H(N)]-glutamine, the vials were counted first using a gamma counter to obtain ^18F counts. The beta counts were then obtained one day later after the ^18F was fully decayed. 100 μL of the cell lysate was used for the determination of the protein concentration by Lowry method.

[2] = test system: 9 L cells; test: In vitro inhibition studies of 4-[18F]F-glutamine (2S,4R) uptake; type: cell-based, rat; details: for effect of inhibitor on tracer uptake / transporter (in words): 0.5 mM to 5 mM; for uptake of [18F]4-FGln (2S,4R) in presence of inhibitor: 30 minutes co-incubation, 5 mM stated for MeAIB, control 3.56
Description: as §1, §2
To test the specificity of the 4-[^18F]F-glutamine (2S,4R) isomer, inhibition studies were conducted using 9 L cells. The tracer was incubated at 37° C. for 30 min. The cells were processed as previously described as above. Cold L-glutamine and L-Serine served as the positive control inhibitors for the glutamine transporters. L-glutamine inhibits system N transporter and L-Serine inhibits the ASC transporter. Cold MeAIB served as the negative control, which inhibits system A transporter. Three different concentrations were tested for each inhibitor ranging from 0.5 mM to 5 mM.

[3] = test system: M/tomND spontaneous human mammary tumors; test: Dynamic small animal PET (A-PET) imaging; type: in vivo, mice; details: ~300 μCi via lateral tail vein, 120 minutes imaging, myc gene up-regulated
Description: Dynamic small animal PET (A-PET) imaging studies were conducted with 4-[^18F]F-glutamine (2S,4R) isomer. All scans were performed on a dedicated animal PET scanner (Mosaic by Phillips) (Surti, 2005). Transgenic mice bearing M/tomND spontaneous human mammary tumors were used in this study. There are many advantages to using this transgenic mouse model. A doxycycline sensitive promoter genetically engineers these mice to express the myc gene. These tumors spontaneously arise vs. traditional xenograph tumors. […] When doxycycline is removed, the myc gene is down regulated. This model was chosen because these compounds will allow a direct correlation between true glutamine uptake and the level of myc gene expression.
Glutamine uptake within the M/tomND tumor was examined by injecting ˜300 μCi of the [^18F]-4F-glutamine (2S,4R) isomer via the lateral tail vein. Imaging commenced immediately after the injection of the tracer and continued for a time period of 120 minutes.

[4] = In vivo biodistribution study in normal mice; details: for % Dose/Gram, Blood / % Dose/Gram, Bone / % Dose/Gram, Brain / % Dose/Gram, Heart / % Dose/Gram, Kidney / % Dose/Gram, Liver / % Dose/Gram, Lung / % Dose/Gram, Muscle / % Dose/Gram, Pancreas / % Dose/Gram, Skin / % Dose/Gram, Spleen: normal ICR mice, n = 5
Description: To test the [^18F]-4F-glutamine isomers as a novel tumor PET imaging agents, we tested the [^18F]-4F-glutamine (2S,4R) (1) in normal ICR mice weighing 20-25 grams. 5 mice per group were used for the biodistrubution study. The mice were put under anesthesia with the use of isoflurane and 0.15 mL saline solution containing 25 μCi of each isomer was injected via the lateral tail vein. The mice were sacrificed at 2, 30, 60, 120 and 240 minutes post-injection by cardiac excision while under isoflurane anesthesia. The organs of interest were removed, weighed and the radioactivity was counted with a gamma counter (Packard Cobra). The percent dose per gram was calculated by a comparison of the tissue activity counts to counts of 1.0% of the initial dose. The initial dose consists of 100 times diluted aliquots of the injected material measured at the same rate.

Compound: NC(=O)[C@H](F)C[C@H](N)C(=O)O [Compound 1, (2S,4R)-2,5-Diamino-4-fluoro-5-oxopentanoic acid]
- cell uptake in 9 L cells (in words) ([1]; listed as 4-FGln (2S,4R)): high uptake; also recorded: excellent uptake

- tumor uptake in PET images (in words) [3]: taken up in the tumor sites
- % Dose/Gram, Blood ([4]; 2 min post-injection, iv): 6.19 ± 0.83 % Dose/Gram
- % Dose/Gram, Blood ([4]; 30 min post-injection, iv): 2.72 ± 0.17 % Dose/Gram
- % Dose/Gram, Blood ([4]; 60 min post-injection, iv): 2.05 ± 0.16 % Dose/Gram
- % Dose/Gram, Blood ([4]; 120 min post-injection, iv): 0.83 ± 0.12 % Dose/Gram
- % Dose/Gram, Blood ([4]; 240 min post-injection, iv): 0.48 ± 0.06 % Dose/Gram
- % Dose/Gram, Bone ([4]; 2 min post-injection, iv): 3.93 ± 0.37 % Dose/Gram
- % Dose/Gram, Bone ([4]; 30 min post-injection, iv): 5.64 ± 0.69 % Dose/Gram
- % Dose/Gram, Bone ([4]; 60 min post-injection, iv): 7.93 ± 1.02 % Dose/Gram
- % Dose/Gram, Bone ([4]; 120 min post-injection, iv): 14.4 ± 1.31 % Dose/Gram
- % Dose/Gram, Bone ([4]; 240 min post-injection, iv): 19.4 ± 0.50 % Dose/Gram
- % Dose/Gram, Brain ([4]; 2 min post-injection, iv): 0.54 ± 0.05 % Dose/Gram
- % Dose/Gram, Brain ([4]; 30 min post-injection, iv): 0.51 ± 0.05 % Dose/Gram
- % Dose/Gram, Brain ([4]; 60 min post-injection, iv): 0.53 ± 0.07 % Dose/Gram
- % Dose/Gram, Brain ([4]; 120 min post-injection, iv): 0.57 ± 0.05 % Dose/Gram
- % Dose/Gram, Brain ([4]; 240 min post-injection, iv): 0.45 ± 0.06 % Dose/Gram
- % Dose/Gram, Heart ([4]; 2 min post-injection, iv): 4.31 ± 0.32 % Dose/Gram
- % Dose/Gram, Heart ([4]; 30 min post-injection, iv): 3.16 ± 0.25 % Dose/Gram
- % Dose/Gram, Heart ([4]; 60 min post-injection, iv): 2.86 ± 0.47 % Dose/Gram
- % Dose/Gram, Heart ([4]; 120 min post-injection, iv): 1.86 ± 0.24 % Dose/Gram
- % Dose/Gram, Heart ([4]; 240 min post-injection, iv): 1.24 ± 0.19 % Dose/Gram
- % Dose/Gram, Kidney ([4]; 2 min post-injection, iv): 16.1 ± 1.03 % Dose/Gram
- % Dose/Gram, Kidney ([4]; 30 min post-injection, iv): 9.93 ± 0.52 % Dose/Gram
- % Dose/Gram, Kidney ([4]; 60 min post-injection, iv): 7.60 ± 0.84 % Dose/Gram
- % Dose/Gram, Kidney ([4]; 120 min post-injection, iv): 2.15 ± 0.34 % Dose/Gram
- % Dose/Gram, Kidney ([4]; 240 min post-injection, iv): 1.25 ± 0.21 % Dose/Gram
- % Dose/Gram, Liver ([4]; 2 min post-injection, iv): 6.92 ± 0.92 % Dose/Gram
- % Dose/Gram, Liver ([4]; 30 min post-injection, iv): 6.23 ± 0.50 % Dose/Gram
- % Dose/Gram, Liver ([4]; 60 min post-injection, iv): 5.70 ± 0.62 % Dose/Gram
- % Dose/Gram, Liver ([4]; 120 min post-injection, iv): 2.46 ± 0.26 % Dose/Gram
- % Dose/Gram, Liver ([4]; 240 min post-injection, iv): 1.30 ± 0.18 % Dose/Gram
- % Dose/Gram, Lung ([4]; 2 min post-injection, iv): 7.15 ± 0.76 % Dose/Gram
- % Dose/Gram, Lung ([4]; 30 min post-injection, iv): 5.36 ± 0.49 % Dose/Gram
- % Dose/Gram, Lung ([4]; 60 min post-injection, iv): 4.37 ± 0.28 % Dose/Gram
- % Dose/Gram, Lung ([4]; 120 min post-injection, iv): 1.69 ± 0.10 % Dose/Gram
- % Dose/Gram, Lung ([4]; 240 min post-injection, iv): 1.03 ± 0.15 % Dose/Gram
- % Dose/Gram, Muscle ([4]; 2 min post-injection, iv): 1.62 ± 0.10 % Dose/Gram
- % Dose/Gram, Muscle ([4]; 30 min post-injection, iv): 2.48 ± 0.16 % Dose/Gram
- % Dose/Gram, Muscle ([4]; 60 min post-injection, iv): 2.86 ± 0.34 % Dose/Gram
- % Dose/Gram, Muscle ([4]; 120 min post-injection, iv): 1.81 ± 0.26 % Dose/Gram
- % Dose/Gram, Muscle ([4]; 240 min post-injection, iv): 0.94 ± 0.15 % Dose/Gram
- % Dose/Gram, Pancreas ([4]; 2 min post-injection, iv): 17.2 ± 1.00 % Dose/Gram
- % Dose/Gram, Pancreas ([4]; 30 min post-injection, iv): 19.7 ± 2.16 % Dose/Gram
- % Dose/Gram, Pancreas ([4]; 60 min post-injection, iv): 17.5 ± 2.28 % Dose/Gram
- % Dose/Gram, Pancreas ([4]; 120 min post-injection, iv): 9.57 ± 1.22 % Dose/Gram
- % Dose/Gram, Pancreas ([4]; 240 min post-injection, iv): 5.92 ± 0.87 % Dose/Gram
- % Dose/Gram, Skin ([4]; 2 min post-injection, iv): 2.72 ± 0.05 % Dose/Gram
- % Dose/Gram, Skin ([4]; 30 min post-injection, iv): 4.01 ± 0.24 % Dose/Gram
- % Dose/Gram, Skin ([4]; 60 min post-injection, iv): 2.94 ± 0.68 % Dose/Gram
- % Dose/Gram, Skin ([4]; 120 min post-injection, iv): 2.17 ± 0.16 % Dose/Gram
- % Dose/Gram, Skin ([4]; 240 min post-injection, iv): 1.25 ± 0.13 % Dose/Gram
- % Dose/Gram, Spleen ([4]; 2 min post-injection, iv): 7.51 ± 0.44 % Dose/Gram
- % Dose/Gram, Spleen ([4]; 30 min post-injection, iv): 5.39 ± 0.72 % Dose/Gram
- % Dose/Gram, Spleen ([4]; 60 min post-injection, iv): 4.22 ± 0.38 % Dose/Gram
- % Dose/Gram, Spleen ([4]; 120 min post-injection, iv): 2.02 ± 0.16 % Dose/Gram
- % Dose/Gram, Spleen ([4]; 240 min post-injection, iv): 1.15 ± 0.14 % Dose/Gram
- pancreas to liver ratio ([4]; after 30 min, normal mice, iv): 4 to 1
Compound: NC(=O)[C@H]([18F])C[C@H](N)C(=O)O [Compound 1, (2S,4R)-2,5-Diamino-4-fluoro-5-oxopentanoic acid]
- cell uptake in 9 L cells (in words) [1]: highest uptake
- uptake of [18F]4-FGln (2S,4R) without inhibitor (control) ([2]; 30 min, 37° C.): 3.56 % dose/100 ug protein
- in vivo de-fluorination (in words) ([4]; inferred from increasing bone uptake at later time points): likely that there was in vivo de-fluorination

Compound: NC(=O)[C@@H](F)C[C@@H](N)C(=O)O [Compound 3, (2R,4S)-4-FGln]
- cell uptake in 9 L cells (in words) [1]: lower cell uptake

Compound: NC(=O)[C@H](F)C[C@@H](N)C(=O)O [Compound 4, (2R,4R)-4-FGln]
- cell uptake in 9 L cells (in words) [1]: lower cell uptake

Compound: NC(=O)CC[C@H](N)C(=O)O [L-glutamine]
- effect of inhibitor on tracer uptake / transporter (in words) ([2]; 30 min): clearly inhibited
- uptake of [18F]4-FGln (2S,4R) in presence of inhibitor [2]: 0.49 % dose/100 ug protein
- inhibition at 5000 µM ([2]; Rattus norvegicus, 0.5 h, 30 min, [5 mM], read-out: inhibition of [18F]4-FGln (2S,4R) uptake): ~90%

Compound: N[C@@H](CO)C(=O)O [L-serine]
- effect of inhibitor on tracer uptake / transporter (in words) ([2]; 30 min): considerable inhibition
- uptake of [18F]4-FGln (2S,4R) in presence of inhibitor [2]: 1.41 % dose/100 ug protein

Compound: CNC(C)(C)C(=O)O [MeAIB]
- effect of inhibitor on tracer uptake / transporter (in words) ([2]; 30 min): little to no effect
- uptake of [18F]4-FGln (2S,4R) in presence of inhibitor [2]: 3.69 % dose/100 ug protein

Reference: patent publication US8747809B2, “Single diastereomers of 4-fluoroglutamine and methods of their preparation and use” (The Trustees Of The University Of Pennsylvania, priority 2009, dated 2014)
